Measured values as given in patent US9962350B2, “Agent for improving normal development rate of fertilized eggs” (SBI Pharmaceuticals Co., Ltd., priority 2014, dated 2018).

System: C57BL/6J in vitro fertilized eggs
Test: Low-temperature in vitro culture of in vitro fertilization-derived fertilized eggs in KSOM or mWM with ALA; embryo development
Format: cell-based, mouse
Procedure: 5 U (units) of equine chorionic gonadotropin (serum gonadotropin) (ASKA Pharmaceutical Co., Ltd.) were intraperitoneally administered to each female mouse of the C57BL/6J lineage (3.9 weeks old to 4.0 weeks old). […], 5 U (units) of gonadotropin (human chorionic gonadotropin) (ASKA Pharmaceutical Co., Ltd.) were intraperitoneally administered thereto for controlled ovarian hyperstimulation. 15 hours after the administration of gonadotropin, the oviducts were recovered by opening the abdomens. In mineral oil, the ampullae of the oviducts were incised with a dissecting needle, and the ova were recovered into a drop of mHTF medium (ARK Resource Co., Ltd.). Sperms were recovered from the cauda epididymides of C57BL/6J male mice and cultured in mHTF medium at 37° C. for 40 minutes to 1 hour under 5% CO2 conditions for capacitation. 2 μl to 4 μl of the mHTF medium containing the sperms was added to the medium drop containing the recovered ova for insemination, and cultured at 37° C. under 5% CO2 conditions. 4 hours to 6 hours after the insemination, the fertilized eggs were washed with KSOM (ARK Resource Co., Ltd.) or mWM (ARK Resource Co., Ltd.) to remove cumulus cells and sperms. The fertilized eggs were temporarily cultured in KSOM or mWM in an incubator of 37° C. and 5% CO2 until all of the fertilized eggs were recovered.
25 of the fertilized eggs per drop were transferred to a drop (covered with mineral oil (Sigma-Aldrich Corp.)) consisting of 100 μl of ALA-unsupplemented or ALA-supplemented (1 μM or 3 μM) medium (KSOM or mWM). Subsequently, the fertilized eggs were cultured under three conditions: a condition of 37° C. and 5% CO2, a condition of 35° C. and 5% CO2, and a condition of 35.5° C. and 5% CO2. The number of 2-cell eggs was counted 24 hours after the ovum recovery, and the number of blastocysts was counted 96 hours thereafter. Since the development of fertilized eggs obtained by in vitro fertilization is slightly slow, the number of blastocysts was also counted 120 hours after the ovum recovery. The development rate of embryos at each culture time was calculated on the basis of the number of 2-cell embryos 24 hours postfertilization defined as 100%. The results about KSOM are shown in Tables 14 and 15 and FIGS. 9 and 11. The results about mWM are shown in Tables 16 and 17 and FIGS. 10, 12, and 13.

With `NCC(=O)CCC(=O)O` [ALA, 5-aminolevulinic acid] the “The number of developed embryos in KSOM” value (35° C., 1 μM ALA, 24 hr) was 61, the “The number of developed embryos in KSOM” value (35° C., 1 μM ALA, 48 hr) was 27 and the “development rate with the number of 2-cell embryos 24 hours postfertilization in KSOM defined as 100%” value (“development rate … in KSOM defined as 100%” below) (35° C., 1 μM ALA, 48 hr) was 44%. The “The number of developed embryos in KSOM” value (35° C., 1 μM ALA, 72 hr) was 26, the “development rate … in KSOM defined as 100%” value (35° C., 1 μM ALA, 72 hr) was 43% and the “The number of developed embryos in KSOM” value (35° C., 1 μM ALA, 120 hr) was 22. For the same molecule, the “development rate … in KSOM defined as 100%” value (35° C., 1 μM ALA, 120 hr (blastocysts)) was 36%, the “The number of developed embryos in mWM” value (35° C., 1 μM ALA, 24 hr) was 51 and the “The number of developed embryos in mWM” value (35° C., 1 μM ALA, 48 hr) was 55. For the same molecule, the “development rate with the number of 2-cell embryos 24 hours postfertilization in mWM defined as 100%” value (“development rate … in mWM defined as 100%” below) (35° C., 1 μM ALA, 48 hr) was 108%, the “The number of developed embryos in mWM” value (35° C., 1 μM ALA, 72 hr) was 46 and the “development rate … in mWM defined as 100%” value (35° C., 1 μM ALA, 72 hr) was 90%. For the same molecule, the “The number of developed embryos in mWM” value (35° C., 1 μM ALA, 96 hr) was 29, the “development rate … in mWM defined as 100%” value (35° C., 1 μM ALA, 96 hr (blastocysts)) was 53% and the “The number of developed embryos in KSOM” value (35° C., 3 μM ALA, 24 hr) was 60. For the same molecule, the “The number of developed embryos in KSOM” value (35° C., 3 μM ALA, 48 hr) was 29, the “development rate … in KSOM defined as 100%” value (35° C., 3 μM ALA, 48 hr) was 48% and the “The number of developed embryos in KSOM” value (35° C., 3 μM ALA, 72 hr) was 27. For the same molecule, the “development rate … in KSOM defined as 100%” value (35° C., 3 μM ALA, 72 hr) was 45%, the “The number of developed embryos in KSOM” value (35° C., 3 μM ALA, 120 hr) was 16 and the “development rate … in KSOM defined as 100%” value (35° C., 3 μM ALA, 120 hr (blastocysts)) was 27%. The “The number of developed embryos in mWM” value (35° C., 3 μM ALA, 24 hr) was 52, the “The number of developed embryos in mWM” value (35° C., 3 μM ALA, 48 hr) was 44 and the “development rate … in mWM defined as 100%” value (35° C., 3 μM ALA, 48 hr) was 85%. For the same molecule, the “The number of developed embryos in mWM” value (35° C., 3 μM ALA, 72 hr) was 27, the “development rate … in mWM defined as 100%” value (35° C., 3 μM ALA, 72 hr) was 52% and the “The number of developed embryos in mWM” value (35° C., 3 μM ALA, 96 hr) was 20. The “development rate … in mWM defined as 100%” value (35° C., 3 μM ALA, 96 hr (blastocysts)) was 38%, the “The number of developed embryos in mWM” value (35.5° C., 1 μM ALA, 24 hr) was 60 and the “The number of developed embryos in mWM” value (35.5° C., 1 μM ALA, 48 hr) was 60. For the same molecule, the “development rate … in mWM defined as 100%” value (35.5° C., 1 μM ALA, 48 hr) was 100%, the “The number of developed embryos in mWM” value (35.5° C., 1 μM ALA, 72 hr) was 49 and the “development rate … in mWM defined as 100%” value (35.5° C., 1 μM ALA, 72 hr) was 82%. The “The number of developed embryos in mWM” value (35.5° C., 1 μM ALA, 96 hr) was 42, the “development rate … in mWM defined as 100%” value (35.5° C., 1 μM ALA, 96 hr (blastocysts)) was 70% and the “The number of developed embryos in mWM” value (35.5° C., 3 μM ALA, 24 hr) was 52. For the same molecule, the “The number of developed embryos in mWM” value (35.5° C., 3 μM ALA, 48 hr) was 52, the “development rate … in mWM defined as 100%” value (35.5° C., 3 μM ALA, 48 hr) was 100% and the “The number of developed embryos in mWM” value (35.5° C., 3 μM ALA, 72 hr) was 46. The “development rate … in mWM defined as 100%” value (35.5° C., 3 μM ALA, 72 hr) was 88%, the “The number of developed embryos in mWM” value (35.5° C., 3 μM ALA, 96 hr) was 39 and the “development rate … in mWM defined as 100%” value (35.5° C., 3 μM ALA, 96 hr (blastocysts)) was 75%.
